Data on eight compounds can be found in publication PMC5520047, “Prioritizing multiple therapeutic targets in parallel using automated DNA-encoded library screening” (Nature Communications, 2017).

Molecules are shown by their SMILES. In brackets after ≈: the same amount, converted by molar mass. Entries after “also recorded” stand apart in the source; their conditions may differ. Where two headings read alike, the source gives them in different places.

Assay [1] has as its target S. aureus methionyl-tRNA synthetase (MRS) (Staphylococcus aureus, UniProt Q5HII6). Kind of assay: t-RNA synthetase biochemical assay (MRS). The following applies: average of two replicates with s.d.
Assay [2] concerns S. aureus WCUH29 wild type. Briefly: MIC broth microdilution. Type of assay: cell-based, Staphylococcus aureus. The following applies: for MIC: Staphylococcus aureus, WCUH29WILDTYPE, S. aureus WCUH29 wild type, read-out: MIC.
Assay [3] concerns S. aureus RN4220 (pYH4) and RN4220 (pYH4-MRS). Kind of assay: MoA study: MIC in MRS overexpressor strain. It counts as cell-based, Staphylococcus aureus. The following applies: for MIC: Staphylococcus aureus.
The target of assay [4] is S. aureus isoleucyl-tRNA synthetase (IRS) (Staphylococcus aureus, UniProt P41972). Briefly: t-RNA synthetase biochemical assay (IRS). Particulars: average of two replicates with s.d.
S. aureus isoleucyl-tRNA synthetase (IRS), sequence (P41972 whole entry): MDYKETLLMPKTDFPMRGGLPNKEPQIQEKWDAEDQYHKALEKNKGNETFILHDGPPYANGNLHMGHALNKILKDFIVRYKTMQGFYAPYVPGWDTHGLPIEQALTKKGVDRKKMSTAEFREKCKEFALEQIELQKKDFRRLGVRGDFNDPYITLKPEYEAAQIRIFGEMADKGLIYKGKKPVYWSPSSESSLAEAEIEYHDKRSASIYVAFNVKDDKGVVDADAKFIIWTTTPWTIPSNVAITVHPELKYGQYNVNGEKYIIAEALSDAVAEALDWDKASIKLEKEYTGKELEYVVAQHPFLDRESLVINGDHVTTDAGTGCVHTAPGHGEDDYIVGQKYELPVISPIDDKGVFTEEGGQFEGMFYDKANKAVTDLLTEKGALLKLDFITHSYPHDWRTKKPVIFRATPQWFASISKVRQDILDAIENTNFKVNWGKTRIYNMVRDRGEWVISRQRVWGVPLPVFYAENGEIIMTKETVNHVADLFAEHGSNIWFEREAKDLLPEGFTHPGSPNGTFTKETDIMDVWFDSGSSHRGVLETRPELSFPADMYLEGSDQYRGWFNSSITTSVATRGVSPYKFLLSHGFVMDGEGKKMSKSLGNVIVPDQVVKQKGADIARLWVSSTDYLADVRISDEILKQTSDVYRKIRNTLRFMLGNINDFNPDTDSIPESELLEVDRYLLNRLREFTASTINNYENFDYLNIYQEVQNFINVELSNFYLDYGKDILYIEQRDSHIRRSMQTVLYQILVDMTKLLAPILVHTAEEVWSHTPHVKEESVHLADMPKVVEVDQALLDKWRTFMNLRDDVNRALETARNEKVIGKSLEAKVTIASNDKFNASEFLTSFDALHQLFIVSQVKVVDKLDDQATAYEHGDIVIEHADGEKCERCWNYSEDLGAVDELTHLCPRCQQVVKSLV
Assay [5] has as its target S. aureus methionine aminopeptidase, MetAP (Staphylococcus aureus, UniProt P0A078). Briefly: MetAP biochemical assay (fluorescence intensity coupled). The following applies: average of two replicates with s.d. An excerpt: 368 Both the S. aureus and A. baumannii UppS in vitro biochemical assay use a pyrophosphatase and Biomol
369 Green Phosphate detection reagent to assess catalytic activity. These assays were based on previously
370 described assays both within GSK and others11-13. Briefly, the enzyme will add up to 8 isopentyl
371 pyrophosphate (IPP) units onto a farnesyl pyrophosphate FPP molecule, resulting in the production of 8
372 moles of inorganic pyrophosphates per mole of substrate added. The pyrophosphate is then converted
373 to inorganic phosphate by a pyrophosphatase, and this phosphate is detected by Biomol Green. The
374 assay is conducted in buffer containing 100 mM Trizma pH7.5, 1 mM MgCl2, 6 mM CHAPS and 0.005% […]
378 10 μL. The detection reagent was incubated for 20 min and 610-620 nm light was monitored by a Perkin
379 Elmer Envision plate reader. […]
383 Standard deviation values were calculated using the n-1 method. […]
388 A fluorescence intensity coupled assay was used to measure the in vitro biochemical activity of S. aureus […]
391 enzyme then digests the liberated peptide GFGF-AFC releasing the AFC causing a fluorescence increase
392 monitored by an Envision plate reader. […]
395 90 minute incubation with quench/detection solution, plates were read on an envision plate reader with […]
406 A fluorescence intensity coupled assay was used to measure the in vitro biochemical activity of M. […]

Assay [6] deals with Acinetobacter baumannii BM4652 ΔadeABC ΔadeIJK (efflux mutant). Briefly: MIC broth microdilution. It counts as cell-based.
Assay [7] concerns Escherichia coli 7623 ΔtolC. Briefly: MIC broth microdilution. It counts as cell-based.
Assay [8] relates to Klebsiella pneumoniae 1161486a ΔtolC. Kind of assay: MIC broth microdilution. It counts as cell-based.
The subject of assay [9] is Pseudomonas aeruginosa PA0322 Δ(mexAB-oprM) Δ(mexCD-oprJ) Δ(mexEF-oprN). Kind of assay: MIC broth microdilution. It counts as cell-based.
Assay [10] has as its system Acinetobacter baumannii ATCC 19606-1 ΔLpxC. Briefly: MIC broth microdilution. Type of assay: cell-based. The following applies: ATCC19606.
Assay [11] concerns Staphylococcus aureus RN4220. Kind of assay: MIC broth microdilution. It counts as cell-based. Particulars: S. aureus RN4220 Gram-positive. As for the experimental part:
(§1) 409 remaining NADPH to convert resazurin into the fluorescent resorufin14. The assay buffer containing
(§2) 410 81.4 mM Hepes pH 7.8, 300 mM KCl, 0.4 mg/mL BSA was used to make the enzyme addition containing
(§3) 411 1.2 μg/mL Mtb DHFR and 50 μM NADPH. This was added in equal volume (5 μL) to a substrate solution
(§4) 412 composed of 240 µM DHF in H2O and incubated for 50 min. Developing solution was prepared with
(§5) 413 0.045 mM Resazurin and 0.6 U/ml Diaphorase in 200 mM sodium phosphate buffer pH 7.8 and 5 μL was
(§6) 414 added. The experiments were conducted in black 384-well plates (Greiner Catalog # 784076) and all
(§7) 415 liquid additions were conducted using a Multidrop combi (Thermo Scientific). The plate was read on a
(§8) 416 ViewLux following a 10 minute delay. Resorufin light production was measured using appropriate
(§9) 417 Viewlux filters: Ex: 525 / 20 Pol (BODIPY TMR FP) Em: 598 / 25 (BODIPY TMR) (B04). Assay plates were
(§10) 418 pre-dispensed with 100 nL DMSO or with 100 nL compounds dissolved in neat DMSO using an Echo®
(§11) 419 liquid handler (Labcyte Inc.) where all wells contained compound samples, except wells in columns 6
420 and 18 that contained DMSO control. Column 6 represented 100% Mtb DHFR activity in the absence of […]
424 were calculated using the n-1 method. […]
(§12) 440 saline). […] Fluorescence was measured (Spectramax M5 […]
(§13) 444 Minimum inhibitory concentrations (MICs) of compounds were determined using broth microdilution […]

Assay [12] has as its system A. baumannii BM4652 strains. Kind of assay: Potentiation of teicoplanin MIC by LpxA compound 4. Type of assay: cell-based, Acinetobacter baumannii.
The test system of assay [13] is A. baumannii BM4652, BM4652/pRK415, BM4652/pRK415-LpxA. Kind of assay: MoA study: MIC and MGIC in LpxA overexpressor. It counts as cell-based. The following applies: Acinetobacter baumannii.
For a further assay, the system named is H. influenzae ΔtolC. Kind of assay: MIC broth microdilution. It counts as cell-based. Particulars: Haemophilus influenzae.
Assay [14] concerns E. coli TOP10 ∆TolC, pHN678’ and pHN678’-LolA antisense. Kind of assay: MoA study: MIC in lolA antisense expressor. Type of assay: cell-based, Escherichia coli. Particulars: for MIC: Escherichia coli.
Assay [15] has as its target M. tuberculosis Dihydrofolate reductase (DHFR) (Mycobacterium tuberculosis, UniProt P9WNX1). Briefly: biochemical.
A further assay deals with M. tuberculosis H37Rv. Kind of assay: MIC determination against M. tuberculosis H37Rv (resazurin). Type of assay: cell-based. The following applies: Mycobacterium tuberculosis. The method, then:
as §1, §2, §3, §4, §5, §6, §7, §8, §9, §10, §11
420 and 18 that contained DMSO control. Column 6 represented 100% Mtb DHFR activity in the absence of
421 GSK compounds. […] Compounds were
422 tested at 1% DMSO in 11 point dose response with a 1:3 dilution and fit to a standard 4 parameter fit to
423 calculate an IC50 value and are reported as the average of two replicates. Standard deviation values
424 were calculated using the n-1 method.
428 Minimum Inhibitory Concentration Assays:
429 MIC determination against M. tuberculosis H37Rv:
430 The measurement of the Minimum Inhibitory Concentration (MIC) against M. tuberculosis H37Rv for
431 each tested compound was performed in 96-well flat-bottom, polystyrene microtiter plates in a final
432 volume of 100 μl. Ten two-fold drug dilutions in neat DMSO starting at 50 mM were performed. Drug […]
as §12, §13

Where [16] appears, read: A. baumannii BM652 efflux strain.
The mark [17] stands for this setting: A. baumannii BM4652 ΔadeABC ΔadeIJK efflux mutant.
Setting [18] is: M. tuberculosis DHFR, average of two replicates with s.d., read-out: IC50.

M. tuberculosis Dihydrofolate reductase (DHFR), sequence (P9WNX1 whole entry): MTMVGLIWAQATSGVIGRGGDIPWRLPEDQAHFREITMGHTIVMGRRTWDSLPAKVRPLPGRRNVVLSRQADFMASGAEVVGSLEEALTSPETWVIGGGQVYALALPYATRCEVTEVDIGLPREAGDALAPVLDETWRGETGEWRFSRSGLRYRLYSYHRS
S. aureus methionine aminopeptidase, MetAP, sequence (P0A078 whole entry): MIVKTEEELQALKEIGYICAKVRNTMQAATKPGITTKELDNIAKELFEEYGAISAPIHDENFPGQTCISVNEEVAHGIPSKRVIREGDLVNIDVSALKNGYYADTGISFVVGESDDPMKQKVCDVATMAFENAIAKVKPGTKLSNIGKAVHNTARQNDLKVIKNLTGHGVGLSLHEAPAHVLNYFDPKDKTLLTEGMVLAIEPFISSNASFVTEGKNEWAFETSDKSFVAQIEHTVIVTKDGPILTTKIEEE
S. aureus methionyl-tRNA synthetase (MRS), sequence (Q5HII6 whole entry): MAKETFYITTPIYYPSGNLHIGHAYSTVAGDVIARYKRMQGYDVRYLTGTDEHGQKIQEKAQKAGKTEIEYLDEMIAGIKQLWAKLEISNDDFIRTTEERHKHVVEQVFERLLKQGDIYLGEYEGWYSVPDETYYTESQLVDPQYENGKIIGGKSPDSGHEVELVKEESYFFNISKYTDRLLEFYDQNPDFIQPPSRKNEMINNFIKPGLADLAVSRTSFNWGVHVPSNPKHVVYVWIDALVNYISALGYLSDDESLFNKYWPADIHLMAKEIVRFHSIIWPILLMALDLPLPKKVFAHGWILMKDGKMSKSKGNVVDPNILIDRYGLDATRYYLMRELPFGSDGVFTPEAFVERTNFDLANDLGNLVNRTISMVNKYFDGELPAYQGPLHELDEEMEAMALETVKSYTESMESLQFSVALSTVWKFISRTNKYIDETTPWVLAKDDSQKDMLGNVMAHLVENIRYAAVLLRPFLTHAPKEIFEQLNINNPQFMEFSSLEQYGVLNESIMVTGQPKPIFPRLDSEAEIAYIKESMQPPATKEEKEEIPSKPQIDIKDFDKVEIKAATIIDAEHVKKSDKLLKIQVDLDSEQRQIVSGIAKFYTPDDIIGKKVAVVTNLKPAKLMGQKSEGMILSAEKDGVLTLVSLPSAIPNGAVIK

`CNC(=O)c1ccc2c(c1)nc(-c1ccc(Br)c(O)c1)n2C(CNC(=O)COc1ccccc1C(C)(C)C)c1ccc(OC)c(OC)c1` (centres unmarked) [Compound 1] came in with a 50% inhibitory concentration (IC50) in [1] of 0.83 ± 0.05 nM. The MIC worked out at 0.5 µg/mL (≈ 0.699 µM) in assay [2], 64 µg/mL (≈ 89.4 µM) in assay [3] (S. aureus RN4220 pYH4-MRS (induced with 0.1 µg/ml anhydrotetracycline)), 4 µg/mL (≈ 5.59 µM) in assay [3] (S. aureus RN4220 pYH4-MRS overexpressor (uninduced)) and 0.5 µg/mL (≈ 0.699 µM) in [3] (S. aureus RN4220 pYH4 vector alone). In addition, the MIC increase is on record as greater than 128 fold in assay [3] (MRS overexpressor induced with 0.1 μg ml^−1 anhydrotetracycline vs vector control strain) and 8 fold in assay [3] (MRS overexpressor uninduced vs vector control strain).

`CNC(=O)c1cccc(CNCc2cc(C(=O)N3CCN(c4cc(Cl)cc(Cl)c4)CC3)cc(C(C)(C)C)c2)c1` [Compound 2] had an IC50 in [4] of 750 ± 210 nM. The MIC in assay [2] turned out to be 4 µg/mL (≈ 7.05 µM).

On to `Cc1nnc(Cn2c(C(C)Cc3ccc4c(c3)OCO4)nc3cccc(Cl)c32)[nH]1` (centres unmarked) [Compound 3], for which, in assay [5], the half-maximal inhibitory concentration (IC50) came to 350 ± 10 nM. The antibacterial activity result in assay [2] (S. aureus) is recorded as “lacked S. aureus antibacterial activity; also recorded: lacks antibacterial activity”. Moreover, in assay [2], the MIC is greater than 128 µg/mL.

Consider `Cc1cc(C)c(NC(=O)NC(CCC(=O)N2CCN(C)CC2)C(=O)Nc2cccc3c2CCCC3)c(C)c1` (centres unmarked) [Compound 4], for which the MIC in assay [6] (setting [16]) is greater than 64 µg/mL; in assay [6] (setting [17]), greater than 128 µg/mL; in assay [7], greater than 128 µg/mL; in assay [8], greater than 128 µg/mL; in assay [9], greater than 128 µg/mL; in assay [10] it was greater than 128 µg/mL. Also, the MIC in assay [11] is greater than 128 µg/mL; in assay [13] (A. baumannii BM4652 (efflux-)), greater than 128 µg/mL; in assay [13] (A. baumannii BM4652/pRK415 (efflux-)), greater than 128 µg/mL; in [13] (A. baumannii BM4652/pRK415-LpxA (efflux-)), greater than 128 µg/mL; in [13] (read-out: MGIC (minimum growth inhibition concentration), A. baumannii BM4652 (efflux-)), 8 µg/mL (≈ 15.4 µM); in assay [13] (read-out: MGIC (minimum growth inhibition concentration), A. baumannii BM4652/pRK415 (efflux-)), 8 µg/mL (≈ 15.4 µM). In addition, the MIC in [13] (read-out: MGIC (minimum growth inhibition concentration), A. baumannii BM4652/pRK415-LpxA (efflux-)) is greater than 128 µg/mL. Moreover, the “concentration of compound 4 required to completely potentiate teicoplanin” value in assay [12] (A. baumannii BM4652) was 32 µg/mL; in assay [12] (A. baumannii BM4652 with LpxA overexpressor clone), greater than 128 µg/mL.

For the compound `CCNc1cc(N2CCc3cc(NS(C)(=O)=O)ccc3C2C)nc(-c2cc(F)cc(C#N)c2)n1` (centres unmarked) [Compound 6], the MIC is greater than 128 µg/mL in assay [6] (setting [16]); greater than 128 µg/mL in assay [6] (setting [17]); greater than 128 µg/mL in [7]; greater than 128 µg/mL in assay [8]; greater than 128 µg/mL in assay [9]; 32 µg/mL (≈ 66.6 µM) in assay [10]. Further, the MIC against H. influenzae ΔtolC is 2 µg/mL (≈ 4.16 µM); in assay [11], greater than 128 µg/mL; in assay [14] (E. coli TOP10 ∆TolC + pHN678’), 128 µg/mL; in assay [14] (E. coli TOP10 ∆TolC + pHN678’-LolA antisense) it was 4 µg/mL. Further, the “Fold MIC decrease” value in assay [14] (lolA antisense plasmid compared to vector alone) stood at 32 fold.

Consider `Cc1ccc(S(=O)(=O)NCCN(CCC(N)=O)C(=O)c2cc(O)cc(NC(=O)CN3C(=O)C(C)Oc4ccccc43)c2)cc1` (centres unmarked) [Compound 7], for which, in assay [15] (setting [18]), the concentration for half-maximal inhibition (IC50) came out at 492 ± 4 nM. The compound further displayed an MIC in the assay on M. tuberculosis H37Rv of 80 µM (≈ 49.9 µg/mL).

As for `COc1ccc(OC)c(Cc2cnc3nc(N)nc(N)c3c2C)c1` [Compound 8], half-maximal inhibition in assay [15] (IC50) was put at 610 ± 420 nM. In addition, the MIC against M. tuberculosis H37Rv was 2.5 µM (≈ 0.813 µg/mL).

For the compound `Cc1cccc(NC(=O)Cc2c(C(=O)O)[nH]c3ccccc23)n1` [Compound 9], in [15] (setting [18]), the IC50 turned out to be 4900 ± 2200 nM. The MIC with M. tuberculosis H37Rv was 80 µM (≈ 24.7 µg/mL).
